Assay results published in patent publication US4049695A, “3-((3-Trifluoromethyl)phenyl)sulfonyl)-2-propenenitrile” (The Dow Chemical Company, priority 1976, dated 1977).
Values after ≈ are worked out from the molar mass of the structure shown.

Assays:
Assay in all cases: in vitro agar Petri dish dilution test
Format in all cases: cell-based
P. pullulans = settings: 100% inhibition, read-out: Minimum Inhibitory Concentration
Excerpt: (§1) The inventive product has antimicrobial activity. In the conventional in vitro agar Petri dish dilution test for determining bactericidal and fungicidal activity, the compound gave 100% inhibition against the indicated organisms at the following concentrations in parts per million, the tabulated values being indicated as minimum inhibitory concentrations (MIC).

[1] = system: Trichoderm Sp. Madison P-42; settings: 100% inhibition, read-out: Minimum Inhibitory Concentration
Excerpt: as §1

A. niger = settings: Aspergillus niger, 100% inhibition, read-out: Minimum Inhibitory Concentration
Excerpt: as §1

P. chrysogenum = settings: Penicillium chrysogenum, 100% inhibition, read-out: Minimum Inhibitory Concentration
Excerpt: as §1

B. subtilis = settings: Bacillus subtilis, 100% inhibition, read-out: Minimum Inhibitory Concentration
Excerpt: as §1

S. aureus = settings: Staphylococcus aureus, 100% inhibition, read-out: Minimum Inhibitory Concentration
Excerpt: as §1

Torulopsis Species = settings: 100% inhibition, read-out: Minimum Inhibitory Concentration
Excerpt: as §1

A. fumigatus = settings: Aspergillus fumigatus, 100% inhibition, read-out: Minimum Inhibitory Concentration
Excerpt: as §1

S. marcescens NIH = settings: Serratia marcescens, 100% inhibition, read-out: Minimum Inhibitory Concentration
Excerpt: as §1

[2] = system: K. pneumoniae M-1 Midland Hospital; settings: Klebsiella pneumoniae, 100% inhibition, read-out: Minimum Inhibitory Concentration
Excerpt: as §1

C. ips = settings: 100% inhibition, read-out: Minimum Inhibitory Concentration
Excerpt: as §1

C. albicansNIH = settings: Candida albicans, 100% inhibition, read-out: Minimum Inhibitory Concentration
Excerpt: as §1

C. pelliculosa = settings: Hansenula anomala, 100% inhibition, read-out: Minimum Inhibitory Concentration
Excerpt: as §1

C. albicans = settings: Candida albicans, 100% inhibition, read-out: Minimum Inhibitory Concentration
Excerpt: as §1

T. mentagrophytes = settings: Trichophyton mentagrophytes, 100% inhibition, read-out: Minimum Inhibitory Concentration
Excerpt: as §1

S. typhosa = settings: 100% inhibition, read-out: Minimum Inhibitory Concentration
Excerpt: as §1

E. coli ATCC 11229 = settings: Escherichia coli, ATCC11229, 100% inhibition, read-out: Minimum Inhibitory Concentration
Excerpt: as §1

[3] = system: Pseudomonas Sp. Strain 10; settings: 100% inhibition, read-out: Minimum Inhibitory Concentration
Excerpt: as §1

## N#CC=CS(=O)(=O)c1cccc(C(F)(F)F)c1 [3-((3-(Trifluoromethyl)phenyl)sulfonyl)-2-propenenitrile]
P. pullulans
  MIC: 50 µg/mL (≈ 191 µM)
[1]
  MIC: 50 µg/mL (≈ 191 µM)
A. niger
  MIC: 50 µg/mL (≈ 191 µM)
P. chrysogenum
  MIC: 50 µg/mL (≈ 191 µM)
B. subtilis
  MIC: 5 µg/mL (≈ 19.1 µM)
S. aureus
  MIC: 5 µg/mL (≈ 19.1 µM)
Torulopsis Species
  MIC: 50 µg/mL (≈ 191 µM)
A. fumigatus
  MIC: 50 µg/mL (≈ 191 µM)
S. marcescens NIH
  MIC: 50 µg/mL (≈ 191 µM)
[2]
  MIC: 50 µg/mL (≈ 191 µM)
C. ips
  MIC: 10 µg/mL (≈ 38.3 µM)
C. albicansNIH
  MIC: 50 µg/mL (≈ 191 µM)
C. pelliculosa
  MIC: 10 µg/mL (≈ 38.3 µM)
C. albicans
  MIC: 50 µg/mL (≈ 191 µM)
T. mentagrophytes
  MIC: 10 µg/mL (≈ 38.3 µM)
S. typhosa
  MIC: 5 µg/mL (≈ 19.1 µM)
E. coli ATCC 11229
  MIC: 50 µg/mL (≈ 191 µM)
[3]
  MIC: 100 µg/mL (≈ 383 µM)
